Legend:
LAMP reaction [1] = assay: Effect of antimicrobial peptides on the amplification (LAMP) reaction; type: biochemical
Text: The use of peptides with higher concentrations may inhibit the amplification reaction in certain extent in comparison of ideal conditions, e.g. pure water (MQ). This is a drawback of use of peptides. However, not all the peptides have an equal effect.
This effect is explained by secondary property of peptides, which is an anti-inhibitory effect. Meaning, that in additionally to lysis effect, peptides also neutralizing inhibitory substances in real samples.

target DNA = assay: Sample pre-treatment with antimicrobial peptides before isothermal amplification; conditions: sample pre-treatment with peptide
LAMP reaction [2] = assay: ProClin950 in BlisterBuffer, effect on LAMP reaction; type: biochemical; conditions: added to BlisterBuffer
Text: Additionally, we added ProClin950 a biozide to the BlisterBuffer in order to inhibit microbial growth.

Row | Compound | increase in isothermal amplification efficiency (target DNA) | also measured
1 | Cecropin P1 (SWLSKTAKKLENSAKKRISEGIAIAIQGGPR; Cecropin P1; listed as Ascaris suum) | – | inhibitory effect on the amplification reaction (LAMP reaction [1]; among current selection of peptides, compared with pure water (MQ)): lowest inhibitory effect; effect on amplification in urinary sample (LAMP reaction [1]; in comparison of pure urinary sample): enhancing effect; increase of the target DNA available for the isothermal amplification (target DNA; on average): 6 times
2 | MSI-78 | did not give significant increase | –
3 | Cn1sccc1=O [ProClin950, 2-Methyl-4-isothiazolin-3-one] | – | inhibition of the LAMP reaction (LAMP reaction [2]): did not inhibit
4 | MSI-594 | did not give significant increase | –
5 | bombolitin III | did not give significant increase | –
6 | CC[C@H](C)[C@H](NC(=O)CN)C(=O)NCC(=O)N[C@@H](C)C(=O)N[C@H](C(=O)N[C@@H](CC(C)C)C(=O)N[C@@H](CCCCN)C(=O)N[C@H](C(=O)N[C@@H](CC(C)C)C(=O)N[C@H](C(=O)N[C@H](C(=O)NCC(=O)N[C@@H](CC(C)C)C(=O)N1CCC[C@H]1C(=O)N[C@@H](C)C(=O)N[C@@H](CC(C)C)C(=O)N[C@H](C(=O)N[C@@H](CO)C(=O)N[C@@H](Cc1c[nH]c2ccccc12)C(=O)N[C@H](C(=O)N[C@@H](CCCCN)C(=O)N[C@@H](CCCNC(=N)N)C(=O)N[C@@H](CCCCN)C(=O)N[C@@H](CCCNC(=N)N)C(=O)N[C@@H](CCC(N)=O)C(=O)N[C@@H](CCC(N)=O)C(N)=O)[C@@H](C)CC)[C@@H](C)CC)[C@@H](C)O)[C@@H](C)O)C(C)C)C(C)C [melittin, Melittin] | did not give significant increase | –

Reference: US11596939B2, “Lamp component distribution in a microfluid cell” (priority 2017, dated 2023)
